Measured values reported in PubChem BioAssay AID2060897 (Molecular Pharmacology Branch, DTP, NCI, 2025).
pIC50: −log10 of the molar value. Values joined by “and” are separate entries in the source; they are usually repeats but may differ in a detail not shown here. Identical values can stand only once. One block for each molecule: values may come before it.

Test system: 966289-007-R4-J1-PDC complex spheroid viability
Experiment: Anticancer human tumor 966289-007-R4-J1-PDC patient-derived pancreatic adenocarcinoma cell line growth inhibition [RAS]
Conditions: for viability, T/C: stronger effect = lower value
In short: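 Tumour cells grown as complex spheroids with HUVEC endothelial cells and mesenchymal stem cells, treated with RAS pathway inhibitor combinations. Each agent spans half-log steps from near clinical Cmax, or 10 microM where Cmax is unknown.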

[1] = curve of first compound, second compound 0.000949 µM
[2] = curve of first compound, second compound 0.003 µM
[3] = curve of first compound, second compound 0.00949 µM
[4] = curve of first compound, second compound 0.03 µM
[5] = curve of first compound, second compound 0.0949 µM
[6] = curve of first compound, second compound 0.3 µM
[7] = second compound 0.000949 µM, first compound 0.00316 µM
[8] = second compound 0.000949 µM, first compound 0.01 µM
[9] = second compound 0.000949 µM, first compound 0.0316 µM
[10] = second compound 0.000949 µM, first compound 0.1 µM
[11] = second compound 0.003 µM, first compound 0.00316 µM
[12] = second compound 0.003 µM, first compound 0.01 µM
[13] = second compound 0.003 µM, first compound 0.0316 µM
[14] = second compound 0.003 µM, first compound 0.1 µM
[15] = second compound 0.00949 µM, first compound 0.00316 µM
[16] = second compound 0.00949 µM, first compound 0.01 µM
[17] = second compound 0.00949 µM, first compound 0.0316 µM
[18] = second compound 0.00949 µM, first compound 0.1 µM
[19] = second compound 0.03 µM, first compound 0.00316 µM
[20] = second compound 0.03 µM, first compound 0.01 µM
[21] = second compound 0.03 µM, first compound 0.0316 µM
[22] = second compound 0.03 µM, first compound 0.1 µM
[23] = second compound 0.0949 µM, first compound 0.00316 µM
[24] = second compound 0.0949 µM, first compound 0.01 µM
[25] = second compound 0.0949 µM, first compound 0.0316 µM
[26] = second compound 0.0949 µM, first compound 0.1 µM
[27] = second compound 0.3 µM, first compound 0.00316 µM
[28] = second compound 0.3 µM, first compound 0.01 µM
[29] = second compound 0.3 µM, first compound 0.0316 µM
[30] = second compound 0.3 µM, first compound 0.1 µM
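Note: spheroids exposed to agents for one week before readout.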
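Throughout, for viability, T/C: percent viability relative to DMSO vehicle control wells as 100%.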

pIC50 [1]: 7.61
pIC50 [2]: 7.53
pIC50 [3]: 7.54
pIC50 [4]: 7.50
pIC50 [5]: 7.53
pIC50 [6]: 7.61
SMILES: CC(C)n1nc(-c2ccc3oc(N)nc3c2)c2c(N)ncnc21 + CCn1c(-c2cccnc2C(C)OC)c2c3cc(ccc31)N1CCOC(CC(NC(=O)C(C(C)C)N(C)C(=O)C3(F)CCN(C(=O)C#CC(C)(C)N(C)C)CC3)C(=O)N3CCCC(N3)C(=O)OCC(C)(C)C2)C1
viability, T/C (second compound 0.000949 µM, first compound 0.000316 µM): 101%
viability, T/C (second compound 0.000949 µM, first compound 0.001 µM): 88.1%
viability, T/C [7]: 133%
viability, T/C [8]: 73.4%
viability, T/C [9]: 45.9%
viability, T/C [10]: 14.3%
viability, T/C (second compound 0.003 µM, first compound 0.000316 µM): 82.1%
viability, T/C (second compound 0.003 µM, first compound 0.001 µM): 102%
viability, T/C [11]: 116%
viability, T/C [12]: 75.9%
viability, T/C [13]: 50.8%
viability, T/C [14]: 15.4%
viability, T/C (second compound 0.00949 µM, first compound 0.000316 µM): 67.1%
viability, T/C (second compound 0.00949 µM, first compound 0.001 µM): 111%
viability, T/C [15]: 95.8%
viability, T/C [16]: 90.2%
viability, T/C [17]: 46.1%
viability, T/C [18]: 20.3%
viability, T/C (second compound 0.03 µM, first compound 0.000316 µM): 56.9%
viability, T/C (second compound 0.03 µM, first compound 0.001 µM): 96.6%
viability, T/C [19]: 111%
viability, T/C [20]: 91.8%
viability, T/C [21]: 50.1%
viability, T/C [22]: 15%
viability, T/C (second compound 0.0949 µM, first compound 0.000316 µM): 58.4%
viability, T/C (second compound 0.0949 µM, first compound 0.001 µM): 96%
viability, T/C [23]: 106%
viability, T/C [24]: 81.3%
viability, T/C [25]: 48.4%
viability, T/C [26]: 18.2%
viability, T/C (second compound 0.3 µM, first compound 0.000316 µM): 115%
viability, T/C (second compound 0.3 µM, first compound 0.001 µM): 96.7%
viability, T/C [27]: 84%
viability, T/C [28]: 89.7%
viability, T/C [29]: 38.6%
viability, T/C [30]: 16.4%

pIC50 (curve of first compound, second compound 0.00316 µM): 8.82
pIC50 (curve of first compound, second compound 0.01 µM): 8.86
pIC50 (curve of first compound, second compound 0.0316 µM): 8.87
pIC50 (curve of first compound, second compound 0.1 µM): 8.91
pIC50 (curve of first compound, second compound 0.316 µM): 8.88
pIC50 (curve of first compound, second compound 1 µM): 8.95
SMILES: CCc1c2c(nc3ccc(O)cc13)-c1cc3c(c(=O)n1C2)COC(=O)[C@]3(O)CC + C=CC(=O)N1CCN(c2nc(OCC3CCCN3C)nc3c(F)c(-c4nc(N)cc(C)c4C(F)(F)F)c(Cl)cc23)C(C)C1
viability, T/C (second compound 0.00316 µM, first compound 0.000949 µM): 82%
viability, T/C (second compound 0.00316 µM, first compound 0.003 µM): 1.8%
viability, T/C (second compound 0.00316 µM, first compound 0.00949 µM): 0.98%
viability, T/C (second compound 0.00316 µM, first compound 0.03 µM): 0.95%
viability, T/C (second compound 0.00316 µM, first compound 0.0949 µM): 0.87%
viability, T/C (second compound 0.00316 µM, first compound 0.3 µM): 0.85%
viability, T/C (second compound 0.01 µM, first compound 0.000949 µM): 72.8%
viability, T/C (second compound 0.01 µM, first compound 0.003 µM): 2.38%
viability, T/C (second compound 0.01 µM, first compound 0.00949 µM): 0.97%
viability, T/C (second compound 0.01 µM, first compound 0.03 µM): 1.12%
viability, T/C (second compound 0.01 µM, first compound 0.0949 µM): 0.92%
viability, T/C (second compound 0.01 µM, first compound 0.3 µM): 0.91%
viability, T/C (second compound 0.0316 µM, first compound 0.000949 µM): 70.5%
viability, T/C (second compound 0.0316 µM, first compound 0.003 µM): 2.51%
viability, T/C (second compound 0.0316 µM, first compound 0.00949 µM): 1.14%
viability, T/C (second compound 0.0316 µM, first compound 0.03 µM): 0.91%
viability, T/C (second compound 0.0316 µM, first compound 0.0949 µM): 0.87%
viability, T/C (second compound 0.0316 µM, first compound 0.3 µM): 0.86%
viability, T/C (second compound 0.1 µM, first compound 0.000949 µM): 63.4%
viability, T/C (second compound 0.1 µM, first compound 0.003 µM): 2.05%
viability, T/C (second compound 0.1 µM, first compound 0.00949 µM): 1.09%
viability, T/C (second compound 0.1 µM, first compound 0.03 µM): 0.89%
viability, T/C (second compound 0.1 µM, first compound 0.0949 µM): 0.99%
viability, T/C (second compound 0.1 µM, first compound 0.3 µM): 0.86%
viability, T/C (second compound 0.316 µM, first compound 0.000949 µM): 68.3%
viability, T/C (second compound 0.316 µM, first compound 0.003 µM): 2.24%
viability, T/C (second compound 0.316 µM, first compound 0.00949 µM): 1.14%
viability, T/C (second compound 0.316 µM, first compound 0.03 µM): 1.03%
viability, T/C (second compound 0.316 µM, first compound 0.0949 µM): 0.87%
viability, T/C (second compound 0.316 µM, first compound 0.3 µM): 1.11%
viability, T/C (second compound 1 µM, first compound 0.000949 µM): 58.1%
viability, T/C (second compound 1 µM, first compound 0.003 µM): 1.43%
viability, T/C (second compound 1 µM, first compound 0.00949 µM): 1.03%
viability, T/C (second compound 1 µM, first compound 0.03 µM): 0.98%
viability, T/C (second compound 1 µM, first compound 0.0949 µM): 0.91%
viability, T/C (second compound 1 µM, first compound 0.3 µM): 0.97%

pIC50 (curve of compound): < 5.00
SMILES: NC1c2ccccc2OC12CCN(c1cnc3c(N4CCCc5ncccc54)n[nH]c3n1)CC2 (stereo unspecified)
viability, T/C (compound 0.1 µM): 92.9% [middle of 4 runs]
viability, T/C (compound 0.316 µM): 107% [middle of 4 runs]
viability, T/C (compound 1 µM): 116% and 63.2% and 101% (2×)
viability, T/C (compound 10 µM): 99.6% [middle of 4 runs]

pIC50 [1]: < 6.00
pIC50 [2]: < 6.00
pIC50 [3]: < 6.00
pIC50 [4]: < 6.00
pIC50 [5]: < 6.00
pIC50 [6]: < 6.00
SMILES: C=CC(=O)Nc1cc(Nc2nccc(-c3cn(C)c4ccccc34)n2)c(OC)cc1N(C)CCN(C)C + CCn1c(-c2cc(N3CCN(C)CC3)cnc2C(C)OC)c2c3cc(ccc31)-c1csc(n1)CC(NC(=O)C1CC1C)C(=O)N1CCCC(N1)C(=O)OCC(C)(C)C2
viability, T/C [7]: 88%
viability, T/C [8]: 88.8%
viability, T/C [9]: 116%
viability, T/C [10]: 69.1%
viability, T/C (second compound 0.000949 µM, first compound 0.316 µM): 83.5%
viability, T/C (second compound 0.000949 µM, first compound 1 µM): 75.5%
viability, T/C [11]: 90.7%
viability, T/C [12]: 92.2%
viability, T/C [13]: 80.2%
viability, T/C [14]: 82.7%
viability, T/C (second compound 0.003 µM, first compound 0.316 µM): 110%
viability, T/C (second compound 0.003 µM, first compound 1 µM): 79.3%
viability, T/C [15]: 111%
viability, T/C [16]: 87.6%
viability, T/C [17]: 98.8%
viability, T/C [18]: 78.7%
viability, T/C (second compound 0.00949 µM, first compound 0.316 µM): 92.9%
viability, T/C (second compound 0.00949 µM, first compound 1 µM): 94.7%
viability, T/C [19]: 74.4%
viability, T/C [20]: 71.4%
viability, T/C [21]: 100%
viability, T/C [22]: 88.4%
viability, T/C (second compound 0.03 µM, first compound 0.316 µM): 120%
viability, T/C (second compound 0.03 µM, first compound 1 µM): 96.8%
viability, T/C [23]: 86%
viability, T/C [24]: 111%
viability, T/C [25]: 98.1%
viability, T/C [26]: 114%
viability, T/C (second compound 0.0949 µM, first compound 0.316 µM): 88.2%
viability, T/C (second compound 0.0949 µM, first compound 1 µM): 101%
viability, T/C [27]: 102%
viability, T/C [28]: 89.6%
viability, T/C [29]: 103%
viability, T/C [30]: 143%
viability, T/C (second compound 0.3 µM, first compound 0.316 µM): 123%
viability, T/C (second compound 0.3 µM, first compound 1 µM): 103%
